From patent publication US6492344B1, “Syndecan enhancer element and syndecan stimulation of cellular differentiation” (Biotie Therapies Corp., priority 1993, dated 2002)
“Also recorded” adds a separate entry of the source.

Experiments:
[1] = system: FGF-inducible Response Element (FiRE); experiment: FiRE CAT assay with AP-1 activating agents in stable 3T3NIH cells; format: cell-based, mouse; conditions: minimal promoter, agents known to activate AP-1
Procedure: FIG. 24. […] Different agents known to induce fos-jun complexes and activate AP-1 driven promoters, were tested for FiRE activation in CAT assay with the minimal promoter transferred in stable 3T3NIH cells in the presence of protein kinase C activator (TPA, 10 mm), protein phosphatase 1 and 2 inhibitors (DA and calycalin A), a cAMP activator (forskolin), or a tyrosine phosphatase inhibitor (orthovanadate).
Agents Activating AP-1 Are Not Sufficient for FiRE Activation. Since FiRE contains AP-1 transcription factors, whose activation is well characterized, we tested chemicals known to cause AP-1 dependent gene activation. These included the protein kinase C (PKC) activator 12-O-tetradecanoylphorpol-13-acetate (TPA), protein-phosphate-1 and -2 inhibitors okadaic acid and calyculin A, cAMP activator forskolin and tyrosine kinase phosphatase inhibitor orthovanadate (FIG. 24a).

[2] = system: syndecan-1 expression in MCF-7 cells; experiment: Syndecan mRNA expression in MCF-7 cells under estrogen and toremifene; format: cell-based, human; conditions: MCF-7 cells exposed to estrogen, then anti-estrogen treatment
Procedure: (§1) The steroid-responsive human breast cancer cell line MCF-7 was used to study the expression of human syndecan under different growth conditions regulated by estrogen and anti-estrogen. Cells were plated at a density of 1.2×10^6 cells/100 mm of plastic culture dish and grown as monolayer cultures in 10 ml per dish of phenol red-free DMEM medium with 5% dextran/charcoal treated fetal calf serum (DS-FCS), 2 mM L-glutamine and 3 μg/ml insulin. […] The cells were cultured for 6 days, and the media were changed every second day. For RNA extraction, cells were washed in situ with PBS and scraped from the plates in 4 M guanidine isothiocyanate.

MCF-7 cells = experiment: Growth behavior of MCF-7 cells under estrogen and toremifene; format: cell-based, human; conditions: MCF-7 cells exposed to estrogen, then toremifene
Procedure: as §1

[3] = system: FGF-inducible Response Element (FiRE); experiment: pFiRE CAT reporter activation by growth factors in 3T3NIH cells; format: cell-based, mouse; conditions: pFiRE transfected 3T3NIH cells; 10 ng/ml growth factor (2 ng/ml TGF-β) or 5% FCS, 2 days
Procedure: Each of these plasmids was transiently transfected into 3T3NIH cells, using the calcium phosphate precipitation method (Chen and Okayama, Mol. Cell Biol. 7:2745-2752 (1987)) as follows. For transient transfections NIH3T3 cells were plated at equal density on six-well plates (Falcon) two days before transfection. Plasmid DNA was transfected into cells by calcium phosphate method (Chen and Okayama, Mol. Cell Biol. 7:2745-2752 (1987)). A β-galactosidase expressing plasmid (pSV-β-galactosidase, Promega) was co-transfected with CAT constructs to monitor transfection efficiencies. Three parallel transfections were used in every assay. Directly after transfection growth factors were added, media change the next day and cells were harvested after two days. CAT activities were measured by liquid scintillation and β-galactosidase activities spectrophotometrically at 420 nm as described by Vihinen et al., J. Biol. Chem 268:17261-17269 (1993)). As a control, other samples of the cells transfected with each plasmid were treated with buffer without FGF-2 for the same time periods.
For the gene expression analysis the fragments of the syndecan-1 upstream region were subcloned from mouse genomic clones into the XbaI site of the pCATProm vector in which a mouse syndecan-1 promoter region (−1310 to +140) was fused to the CAT reporter gene (Vihinen et al., J. Biol. Chem. 271:12532-12541 (1996)). The pX-HIIICAT plasmid was prepared by cloning HindIII-XhoI promoter fragment (−2400 to +140 bp) into the promoterless pCAT basic vector (Promega). For pXSp1 and 2 plasmids, SphI fragments −11.4 to −10.5 kb and −10.5 to −9.4 kb, respectively) were deleted from pXb6CAT (−11.6 to −9.4 kb). Constructs pXS2, pXB3 and pXX1 were generated by ligating SphI-EarI/blunt (−10.5 to −10.1 kb), EarI/blunt fragment (−10.1 to −9.8 kb) and EarI/blunt-XbaI (−9.8 to −9.4 kb) from pXSpI into SphI-AccI/blunt, AccI/blunt or XbaI-SphIlblunt sites, respectively, into the pCATProm vector. Blunt ended fragments were made by T4 polymerase (Promega). For FiRE and FiREREV a PstI-StyI/blunt fragment was subcloned into PstI-EcoRV or PstI-SmaI sites of the pBluescript vector and then transfected to Xba-SphI sites in pCATProm vector. These constructs were then used to transient transfect NIH3T3 cells as described supra, and CAT activity was measured.
Effect of Various Growth Factors on Enhancer Activation in NIH3T3 Cells. Plasmid pFiRE was transfected into 3T3NIH cells as described, supra. The cells were starved in DMEM medium supplemented with 5% fetal calf serum to about 70% confluence. Fetal calf serum was then replaced with 2% carboxy-methyl-Sephadex eluted fetal calf serum (CMS) 12 hrs before adding the growth factors. Various growth factors in the same medium, 5% fetal calf serum (FCS) supplemented medium or a control containing the medium, without any added growth factors were incubated with the transfected cells for 2 days, and CAT activity was measured. The effect of 10 ng/ml of FGF-2, FGF-1, FGF-4, FGF-7 (KGF), EGF, IGF1, TGFα, IFNγ, and PDGF and 2 ng/ml TGF-β were tested. The human recombinant growth factors were purchased from Peprotech (FGF-1, -2, and -7), Boehringer (FGF-2) or from Calbiochem (PDGF) TGF-β was purchased from Sigma. The effect of the added growth factors and FCS on DNA synthesis was also tested by a 125-IdU incorporation assay. […] Radioactivity was measured using a gamma counter (Wallac).

3T3NIH cells = experiment: 125-IdU incorporation (DNA synthesis) assay in 3T3NIH cells; format: cell-based, mouse; conditions: pFiRE transfected 3T3NIH cells; 10 ng/ml growth factor (2 ng/ml TGF-β) or 5% FCS
Description: Effect of Various Growth Factors on Enhancer Activation in NIH3T3 Cells. Plasmid pFiRE was transfected into 3T3NIH cells as described, supra. The cells were starved in DMEM medium supplemented with 5% fetal calf serum to about 70% confluence. Fetal calf serum was then replaced with 2% carboxy-methyl-Sephadex eluted fetal calf serum (CMS) 12 hrs before adding the growth factors. Various growth factors in the same medium, 5% fetal calf serum (FCS) supplemented medium or a control containing the medium, without any added growth factors were incubated with the transfected cells for 2 days, and CAT activity was measured. The effect of 10 ng/ml of FGF-2, FGF-1, FGF-4, FGF-7 (KGF), EGF, IGF1, TGFα, IFNγ, and PDGF and 2 ng/ml TGF-β were tested. The human recombinant growth factors were purchased from Peprotech (FGF-1, -2, and -7), Boehringer (FGF-2) or from Calbiochem (PDGF) TGF-β was purchased from Sigma. The effect of the added growth factors and FCS on DNA synthesis was also tested by a 125-IdU incorporation assay. This cell proliferation assay was carried out by incubating cells for 4-6 hrs with 0.25 μCi/ml 5-[^125I]iodo-2′-deoxyuridine (IdU, Amersham), washed several times with PBS and solubilized in 1 M NaOH. Radioactivity was measured using a gamma counter (Wallac).

[4] = system: FGF-inducible Response Element (FiRE); experiment: FiRE / Syn Prom CAT reporter in MCA3D keratinocytes; format: cell-based; conditions: MCA3D mouse keratinocytes transfected with FiRE construct
Procedure: The cells used for proximal promoter constructs were 3T3 NIH, S115 (either hormone-treated or not) and nMuMG cells. For enhancer constructs we used 3T3 NIH cells grown in 2% CMS medium and MCA 3D cells grown in Ham's medium. 3T3 NIH cells were also used to test the effect of growth factors in 2% CMS medium with 10 ng/ml FGF-2 and 2ng/ml TGFβ-1. MCA 3D cells were used to test the effect of 10 ng/ml KGF.
FiRE is Induced Selectively by FGF-7 in Keratinocytes. The ability of FiRE to enhance transcription was tested in the mouse keratinocyte cell line MCA3D (Kuliz-Martin et al., Carcinogenesis 4:1367-1377 (1983)). MCA3D cells were transfected as described supra for mouse NIH3T3 cells. Following transfection, the cells were treated with fetal calf serum, PDGF, FGF-1, FGF-2, and FGF-7 as described supra for the NIH3T3 cells.

syndecan-1 gene = experiment: Syndecan-1 mRNA quantification in 3T3NIH cells exposed to FGF-2; format: cell-based, mouse; conditions: TGF-β alone
Description: Northern Blot—RNA was isolated from 3T3 and NMuMG cells using 4 M guanidine isothiocyanate and CsCl density centrifugation (Chirgwin et al., Biochemistry 18:5294-5299 (1979)). RNA samples were size-separated on a 1% agarose formaldehyde gel, transferred to a GeneScreen Plus™ membrane (New England Nuclear) and hybridized with a multi-prime (Amersham) labeled partial cDNA clone for mouse syndecan (PM-4) (Saunders et al., J. Cell Biol. 108:1547-1556 (1989)). After hybridization, the membrane was washed in 2×SSC and 1.0% SDS at 65° C. (high stringency conditions). For rehybridization with glyceraldehyde-3-phosphate-dehydrogenase (GAPDH; Fort et al., Nucleic Acid Res. 13:1431-1442 (1985)), the bound PM-4 probe was removed as recommended by the manufacturer of the filter (NEN).
Following incubation with FGF-2, syndecan MRNA was isolated and quantified. Control incubations without FGF-2 were also performed. Syndecan mRNA was isolated and quantified […] FGF-2 treatment following 6, 12, and 24 hr incubations. The quantification of syndecan mRNA production can be seen in FIG. 11a. GAPDH mRNA was used as a loading control. […] The enhancement appears to be maximal at about 6 hrs of FGF-2 incubation, and decreases thereafter. In the Figure, two individual exposures for each time point are presented.

Row | Compound | FiRE activation (CAT assay) [1] | FiRE enhancer activation (CAT reporter activity) [3] | DNA synthesis / cell proliferation (125-IdU incorporation) (3T3NIH cells) | other results
1 | CCCCCCCCCCCCCC(=O)O[C@@H]1[C@@H](C)[C@@]2(O)[C@@H](C=C(CO)C[C@]3(O)C(=O)C(C)=C[C@@H]23)[C@H]2C(C)(C)[C@]12OC(C)=O [TPA, 12-O-tetradecanoylphorpol-13-acetate] | none of the other compounds known to induce immediate early genes fos and jun and AP-1 driven promoters, were able to activate FiRE; also recorded: do not activate |  |  | 
2 | COC[C@@H]([C@H](O)[C@H](O)C(=O)NCC[C@H](C)c1nc(/C=C/C[C@@H]2O[C@]3(C[C@@H](O)[C@@H]2C)O[C@H]([C@H](C[C@H](O)[C@H](C)[C@H](O)[C@H](C)/C=C(C)/C(C)=C/C=C/C(C)=C\C#N)OC)[C@H](OP(=O)(O)O)C3(C)C)co1)N(C)C [calyculin A] | none of the other compounds known to induce immediate early genes fos and jun and AP-1 driven promoters, were able to activate FiRE |  |  | 
3 | C=C1[C@@H](O)[C@@H]2O[C@]3(CC[C@H](/C=C/[C@@H](C)[C@@H]4CC(C)=C[C@@]5(O[C@H](C[C@@](C)(O)C(=O)O)CC[C@H]5O)O4)O3)CC[C@H]2O[C@@H]1[C@@H](O)C[C@H](C)[C@H]1O[C@@]2(CCCCO2)CC[C@H]1C [okadaic acid] | none of the other compounds known to induce immediate early genes fos and jun and AP-1 driven promoters, were able to activate FiRE |  |  | 
4 | [O]=[V]([O-])([O-])[O-] [orthovanadate] | resulted in activation of FiRE |  |  | 
5 | CN(C)CCOc1ccc(/C(=C(/CCCl)c2ccccc2)c2ccccc2)cc1 [toremifene] |  |  |  | syndecan-1 expression [2]: reverse their lowered syndecan expression; also recorded: restored syndecan-1 expression to levels close to that found in cells not exposed to estrogen; growth behavior of cells (MCF-7 cells): aided the cells in maintaining their normal growth behavior
6 | EGF: epidermal growth factor (NSDSECPLSHDGYCLHDGVCMYIEALDKYACNCVVGYIGERCQYRDLKWWELR; Epidermal growth factor; UniProt P01133 971-1023, looked up) |  | no significant enhancer activation; also recorded: no effect on enhancer activity | significant increase in DNA synthesis; also recorded: enhanced cell proliferation to a similar extent as FGF-2 | 
7 | FGF-1: human recombinant growth factor, FGF family member |  | did not activate or suppress; also recorded: lower effect | significant increase in DNA synthesis | FiRE activation [4]: failed to activate FiRE; also recorded: did not activate FiRE
8 | IGF: growth factor IGF1 tested at 10 ng/ml |  | no effect on enhancer activity | enhanced cell proliferation to a similar extent as FGF-2 | 
9 | PDGF |  | no significant enhancer activation; also recorded: no effect on enhancer activity | significant increase in DNA synthesis; also recorded: enhanced cell proliferation to a similar extent as FGF-2 | FiRE activation [4]: failed to activate FiRE; also recorded: did not activate FiRE
10 | TGF-β: transforming growth factor beta; porcine TGFβ1 |  | no significant enhancer activation | significant increase in DNA synthesis | activation of the syndecan-1 gene (syndecan-1 gene): cannot activate the syndecan-1 gene
